From patent US20100003217A1, “Compounds and Pharmaceutical Compositions for the Treatment of Viral Infections” (priority 2008, published 2010)
“And” between values parts separate entries of the source, which are not always exact repeats. Equal entries are not always repeated.

Tests used:
rat primary hepatocytes = test: Metabolic disposition of [^14C]-Compound 1 and [^14C]-2′-C-methyl guanosine in rat primary hepatocytes (incubation medium, cellular extracts, nucleotide levels); type: in vitro ADME, Sprague Dawley rat
In short: (§1)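 Rat, monkey or human primary hepatocytes on collagen I plates (1.6 million cells/mL) were incubated at 37° C with 1 or 10 μM C-8 [^14C]-labelled compound or 2′-C-methyl guanosine for 1, 4, 8 and 24 hours. Medium and 70% methanol cell extracts were analysed by LSC and radio-HPLC. Nucleotides were identified by alkaline phosphatase treatment and retention-time matching to standards.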

[1] = test system: monkey primary hepatocytes; test: Metabolic disposition of [^14C]-Compound 1 and [^14C]-2′-C-methyl guanosine in monkey primary hepatocytes (incubation medium, cellular extracts, nucleotide levels); type: in vitro ADME, Cynomolgus monkey; settings: for AUC (area under the concentration-time curve) of Compound 7 levels: 0-24 h
In short: as §1

[2] = monkey hepatocytes (Cy234), 10 μM [^14C]-Compound 1, 4 h
[3] = monkey hepatocytes Cy230, 10 μM [^14C]-2′-C-methyl guanosine, 1 h
[4] = monkey hepatocytes Cy230, 10 μM [^14C]-2′-C-methyl guanosine, 8 h
[5] = monkey hepatocytes Cy230, 10 μM [^14C]-2′-C-methyl guanosine, 24 h
[6] = monkey hepatocytes Cy234, 10 μM [^14C]-2′-C-methyl guanosine, 1 h
[7] = monkey hepatocytes Cy234, 10 μM [^14C]-2′-C-methyl guanosine, 4 h
[8] = monkey hepatocytes Cy234, 10 μM [^14C]-2′-C-methyl guanosine, 8 h
[9] = monkey hepatocytes Cy234, 10 μM [^14C]-2′-C-methyl guanosine, 24 h

2′-C-methyl guanosine nucleotide levels in cellular extracts (rat primary hepatocytes; rat hepatocytes Rs458, 10 μM [^14C]-Compound 1, 0 h): 0 pmol/million cells
AUC (area under the concentration-time curve) of Compound 7 levels (rat primary hepatocytes; rat hepatocytes Rs458, 10 μM [^14C]-Compound 1, 0-24 h): 28123 pmol * hr/million cells
2′-C-methyl guanosine nucleotide levels in cellular extracts (rat primary hepatocytes; rat hepatocytes Rs458, 10 μM [^14C]-Compound 1, 1 h): 534 pmol/million cells
2′-C-methyl guanosine nucleotide levels in cellular extracts (rat primary hepatocytes; rat hepatocytes Rs458, 10 μM [^14C]-Compound 1, 4 h): 1347 pmol/million cells
2′-C-methyl guanosine nucleotide levels in cellular extracts (rat primary hepatocytes; rat hepatocytes Rs458, 10 μM [^14C]-Compound 1, 8 h): 1618 pmol/million cells
2′-C-methyl guanosine nucleotide levels in cellular extracts (rat primary hepatocytes; rat hepatocytes Rs458, 10 μM [^14C]-Compound 1, 24 h): 770 pmol/million cells
Compound 7 maximal levels (rat primary hepatocytes; rat hepatocytes, 1 μM [^14C]-Compound 1): 103 pmol/million cells
Maximum Compound 7 levels (rat primary hepatocytes; rat hepatocytes, 10 μM [^14C]-2′-C-methyl guanosine, at 24 hours): 249 pmol/million cells
Compound 7 AUC0-24h (rat primary hepatocytes; rat hepatocytes, 10 μM [^14C]-Compound 1): 29,846 pmol*h/million cells
Compound 7 maximum levels (rat primary hepatocytes; rat hepatocytes, 10 μM [^14C]-Compound 1, at 8 hours): 1,705 pmol/million cells
metabolites observed in cellular extracts (% of total radioactivity) ([1]; monkey hepatocytes (Cy230, Cy234), 10 μM [^14C]-Compound 1, 1 h): 63.4% and 34.9%
metabolites observed in cellular extracts (% of total radioactivity) ([1]; monkey hepatocytes (Cy230, Cy234), 10 μM [^14C]-Compound 1, 8 h): 80.9% and 77.6%
metabolites observed in cellular extracts (% of total radioactivity) ([1]; monkey hepatocytes (Cy230, Cy234), 10 μM [^14C]-Compound 1, 24 h): 72.2% and 79.4%
2′-C-methyl guanosine nucleotide levels in cellular extracts [1, 2]: 183 pmol/million cells
metabolites observed in cellular extracts (% of total radioactivity) [1, 2]: 70.3%
2′-C-methyl guanosine nucleotide levels in cellular extracts ([1]; monkey hepatocytes Cy230, 10 μM [^14C]-2′-C-methyl guanosine, 0 h): 0 pmol/million cells
AUC (area under the concentration-time curve) of Compound 7 levels ([1]; monkey hepatocytes Cy230, 10 μM [^14C]-2′-C-methyl guanosine): 241 pmol * hr/million cells
2′-C-methyl guanosine nucleotide levels in cellular extracts [1, 3]: 2.87 pmol/million cells
Major metabolites observed in cellular extracts (% of total radioactivity) [1, 3]: 3.63 % of total radioactivity
Major metabolites observed in cellular extracts (% of total radioactivity) [1, 4]: 19.9 % of total radioactivity
2′-C-methyl guanosine nucleotide levels in cellular extracts [1, 5]: 6.85 pmol/million cells
Major metabolites observed in cellular extracts (% of total radioactivity) [1, 5]: 26.6 % of total radioactivity
2′-C-methyl guanosine nucleotide levels in cellular extracts ([1]; monkey hepatocytes Cy230, 10 μM [^14C]-Compound 1, 0 h): 0 pmol/million cells
AUC (area under the concentration-time curve) of Compound 7 levels ([1]; monkey hepatocytes Cy230, 10 μM [^14C]-Compound 1): 13765 pmol * hr/million cells
2′-C-methyl guanosine nucleotide levels in cellular extracts ([1]; monkey hepatocytes Cy230, 10 μM [^14C]-Compound 1, 1 h): 180 pmol/million cells
2′-C-methyl guanosine nucleotide levels in cellular extracts ([1]; monkey hepatocytes Cy230, 10 μM [^14C]-Compound 1, 8 h): 895 pmol/million cells
2′-C-methyl guanosine nucleotide levels in cellular extracts ([1]; monkey hepatocytes Cy230, 10 μM [^14C]-Compound 1, 24 h): 344 pmol/million cells
2′-C-methyl guanosine nucleotide levels in cellular extracts ([1]; monkey hepatocytes Cy234, 10 μM [^14C]-2′-C-methyl guanosine, 0 h): 0 pmol/million cells
AUC (area under the concentration-time curve) of Compound 7 levels ([1]; monkey hepatocytes Cy234, 10 μM [^14C]-2′-C-methyl guanosine): 956 pmol * hr/million cells
2′-C-methyl guanosine nucleotide levels in cellular extracts [1, 6]: 4.00 pmol/million cells
Major metabolites observed in cellular extracts (% of total radioactivity) [1, 6]: 8.70 % of total radioactivity
2′-C-methyl guanosine nucleotide levels in cellular extracts [1, 7]: 29.0 pmol/million cells
Major metabolites observed in cellular extracts (% of total radioactivity) [1, 7]: 35.6 % of total radioactivity
2′-C-methyl guanosine nucleotide levels in cellular extracts [1, 8]: 39.0 pmol/million cells
Major metabolites observed in cellular extracts (% of total radioactivity) [1, 8]: 43.0 % of total radioactivity
2′-C-methyl guanosine nucleotide levels in cellular extracts [1, 9]: 57.0 pmol/million cells
Major metabolites observed in cellular extracts (% of total radioactivity) [1, 9]: 51.8 % of total radioactivity
2′-C-methyl guanosine nucleotide levels in cellular extracts ([1]; monkey hepatocytes Cy234, 10 μM [^14C]-Compound 1, 0 h): 0 pmol/million cells
AUC (area under the concentration-time curve) of Compound 7 levels ([1]; monkey hepatocytes Cy234, 10 μM [^14C]-Compound 1): 9861 pmol * hr/million cells
2′-C-methyl guanosine nucleotide levels in cellular extracts ([1]; monkey hepatocytes Cy234, 10 μM [^14C]-Compound 1, 1 h): 22.0 pmol/million cells
2′-C-methyl guanosine nucleotide levels in cellular extracts ([1]; monkey hepatocytes Cy234, 10 μM [^14C]-Compound 1, 8 h): 476 pmol/million cells
2′-C-methyl guanosine nucleotide levels in cellular extracts ([1]; monkey hepatocytes Cy234, 10 μM [^14C]-Compound 1, 24 h): 552 pmol/million cells
Maximum Compound 7 levels ([1]; monkey hepatocytes, 10 μM [^14C]-2′-C-methyl guanosine, at 24 hours): 32 pmol/million cells
Compound 7 AUC0-24h ([1]; monkey hepatocytes, 10 μM [^14C]-Compound 1): 11,813 pmol*h/million cells
major intracellular metabolite, % of total intracellular radioactivity ([1]; monkey hepatocytes, 10 μM [^14C]-Compound 1, from 4-24 hours): > 70%
Compound: C[C@@]1(O)[C@H](O)[C@@H](COP(=O)(O)OP(=O)(O)OP(=O)(O)O)O[C@H]1n1cnc2c(=O)[nH]c(N)nc21 [Compound 7, [(2R)-2-methyl-β-D-ribofuranosyl]guanine 5′-triphosphate]
2′-C-methyl guanosine nucleotide levels in cellular extracts [1, 4]: 14.58 pmol/million cells and 14.6 pmol/million cells
Compound 7 peak levels ([1]; monkey hepatocytes, 10 μM [^14C]-Compound 1, at 8 hours in one donor and at 24 hours in the second): 895 pmol/million cells and 552 pmol/million cells
